Measurements from ChEMBL document CHEMBL3046407, “Toxicity of monoterpenes against larvae and adults of Colorado potato beetle, Leptinotarsa decemlineata Say (Coleoptera: Chrysomelidae)” (2007).

Tests used:
[1] = system: Leptinotarsa decemlineata; assay: Insecticidal activity against first-instar larval stage of Leptinotarsa decemlineata infested potato leaves assessed as mortality at 10 mg after 12 hr relative to control; assay type: functional
[2] = system: Leptinotarsa decemlineata; assay type: functional, Instar larval stage
[3] = system: Leptinotarsa decemlineata; assay type: functional, Instar larval stage; remark: listed apart in the source
[4] = system: Leptinotarsa decemlineata; assay: Insecticidal activity against first-instar larval stage of Leptinotarsa decemlineata infested potato leaves assessed as mortality at 10 mg after 48 hr relative to control; assay type: functional
[5] = system: Leptinotarsa decemlineata; assay: Insecticidal activity against second-instar larval stage of Leptinotarsa decemlineata infested potato leaves assessed as mortality at 10 mg after 12 hr relative to control; assay type: functional
[6] = system: Leptinotarsa decemlineata; assay type: functional, Instar larval stage; remark: listed apart in the source
[7] = system: Leptinotarsa decemlineata; assay: Insecticidal activity against second-instar larval stage of Leptinotarsa decemlineata infested potato leaves assessed as mortality at 20 mg after 12 hr relative to control; assay type: functional
[8] = system: Leptinotarsa decemlineata; assay: Insecticidal activity against first-instar larval stage of Leptinotarsa decemlineata infested potato leaves assessed as mortality at 10 mg after 24 hr relative to control; assay type: functional
[9] = system: Leptinotarsa decemlineata; assay type: functional, Instar larval stage; remark: listed apart in the source
[10] = system: Leptinotarsa decemlineata; assay type: functional, Instar larval stage; remark: listed apart in the source
[11] = system: Leptinotarsa decemlineata; assay type: functional, Instar larval stage; remark: listed apart in the source
[12] = system: Leptinotarsa decemlineata; assay: Insecticidal activity against adult Leptinotarsa decemlineata infested potato leaves assessed as mortality at 20 mg after 24 hr relative to control; assay type: functional
[13] = system: Leptinotarsa decemlineata; assay: Insecticidal activity against first-instar larval stage of Leptinotarsa decemlineata infested potato leaves assessed as mortality at 20 mg after 48 hr relative to control; assay type: functional
[14] = system: Leptinotarsa decemlineata; assay: Insecticidal activity against adult Leptinotarsa decemlineata infested potato leaves assessed as mortality at 20 mg after 96 hr relative to control; assay type: functional
[15] = system: Leptinotarsa decemlineata; assay type: functional, Instar larval stage; remark: listed apart in the source
[16] = system: Leptinotarsa decemlineata; assay: Insecticidal activity against adult Leptinotarsa decemlineata infested potato leaves assessed as mortality at 20 mg after 48 hr relative to control; assay type: functional
[17] = system: Leptinotarsa decemlineata; assay: Insecticidal activity against first-instar larval stage of Leptinotarsa decemlineata infested potato leaves assessed as mortality at 20 mg after 24 hr relative to control; assay type: functional
[18] = system: Leptinotarsa decemlineata; assay: Insecticidal activity against adult Leptinotarsa decemlineata infested potato leaves assessed as mortality at 10 mg after 12 hr relative to control; assay type: functional
[19] = system: Leptinotarsa decemlineata; assay: Insecticidal activity against first-instar larval stage of Leptinotarsa decemlineata infested potato leaves assessed as mortality at 20 mg after 12 hr relative to control; assay type: functional
[20] = system: Leptinotarsa decemlineata; assay: Insecticidal activity against adult Leptinotarsa decemlineata infested potato leaves assessed as mortality at 20 mg after 12 hr relative to control; assay type: functional
[21] = system: Leptinotarsa decemlineata; assay: Insecticidal activity against third-instar larval stage of Leptinotarsa decemlineata infested potato leaves assessed as mortality at 10 mg after 24 hr relative to control; assay type: functional
[22] = system: Leptinotarsa decemlineata; assay: Insecticidal activity against adult Leptinotarsa decemlineata infested potato leaves assessed as mortality at 10 mg after 24 hr relative to control; assay type: functional
[23] = system: Leptinotarsa decemlineata; assay: Insecticidal activity against adult Leptinotarsa decemlineata infested potato leaves assessed as mortality at 10 mg after 96 hr relative to control; assay type: functional
[24] = system: Leptinotarsa decemlineata; assay type: functional, Instar larval stage; remark: listed apart in the source
[25] = system: Leptinotarsa decemlineata; assay type: functional, Instar larval stage; remark: listed apart in the source
[26] = system: Leptinotarsa decemlineata; assay: Insecticidal activity against third-instar larval stage of Leptinotarsa decemlineata infested potato leaves assessed as mortality at 10 mg after 12 hr relative to control; assay type: functional
[27] = system: Leptinotarsa decemlineata; assay type: functional, Instar larval stage; remark: listed apart in the source
[28] = system: Leptinotarsa decemlineata; assay: Insecticidal activity against third-instar larval stage of Leptinotarsa decemlineata infested potato leaves assessed as mortality at 20 mg after 24 hr relative to control; assay type: functional
[29] = system: Leptinotarsa decemlineata; assay: Insecticidal activity against first-instar larval stage of Leptinotarsa decemlineata infested potato leaves assessed as mortality at 10 mg after 96 hr relative to control; assay type: functional
[30] = system: Leptinotarsa decemlineata; assay: Insecticidal activity against third-instar larval stage of Leptinotarsa decemlineata infested potato leaves assessed as mortality at 20 mg after 12 hr relative to control; assay type: functional
[31] = system: Leptinotarsa decemlineata; assay: Insecticidal activity against first-instar larval stage of Leptinotarsa decemlineata infested potato leaves assessed as mortality at 20 mg after 96 hr relative to control; assay type: functional
[32] = system: Leptinotarsa decemlineata; assay: Insecticidal activity against adult Leptinotarsa decemlineata infested potato leaves assessed as mortality at 10 mg after 48 hr relative to control; assay type: functional

CC(C)[C@H]1CC[C@@H](C)C[C@@H]1O [ISOMENTHOL]
mortality [1]: 3.3% | mortality [2]: 0% | mortality [3]: 0% | mortality [4]: 6.7% | mortality [5]: 0% | mortality [6]: 0% | mortality [7]: 0% | mortality [8]: 3.3% | mortality [9]: 0% | mortality [10]: 0% | mortality [11]: 3.3% | mortality [12]: 6.7% | mortality [13]: 0% | mortality [14]: 26.7% | mortality [15]: 0% | mortality [16]: 20% | mortality [17]: 0% | mortality [18]: 0% | mortality [19]: 0% | mortality [20]: 6.7% | mortality [21]: 0% | mortality [22]: 20% | mortality [23]: 33.3% | mortality [24]: 0% | mortality [25]: 0% | mortality [26]: 0% | mortality [27]: 6.7% | mortality [28]: 0% | mortality [29]: 10% | mortality [30]: 0% | mortality [31]: 0% | mortality [32]: 30%

CC1CCC(C(C)C)C(O)C1 (stereo not given) [MENTHOL]
mortality [1]: 0% | mortality [2]: 26.7% | mortality [3]: 6.7% | mortality [4]: 16.7% | mortality [5]: 3.3% | mortality [6]: 33.3% | mortality [7]: 0% | mortality [8]: 3.3% | mortality [9]: 20% | mortality [10]: 40% | mortality [11]: 40% | mortality [12]: 0% | mortality [13]: 30% | mortality [14]: 33% | mortality [15]: 26.7% | mortality [16]: 13.3% | mortality [17]: 16.7% | mortality [18]: 3.3% | mortality [19]: 0% | mortality [20]: 0% | mortality [21]: 23.3% | mortality [22]: 3.3% | mortality [23]: 30% | mortality [24]: 46.7% | mortality [25]: 23.3% | mortality [26]: 20% | mortality [27]: 40% | mortality [28]: 33.3% | mortality [29]: 36.7% | mortality [30]: 26.7% | mortality [31]: 36.7% | mortality [32]: 16.7%

CC1(C)C2CCC1(C)C(O)C2 (stereo not given) [BORNEOL]
mortality [1]: 0% | mortality [2]: 0% | mortality [3]: 0% | mortality [4]: 0% | mortality [5]: 0% | mortality [6]: 16.7% | mortality [7]: 0% | mortality [8]: 0% | mortality [9]: 0% | mortality [10]: 23.3% | mortality [11]: 0% | mortality [12]: 20% | mortality [13]: 6.7% | mortality [14]: 66.7% | mortality [15]: 0% | mortality [16]: 66.7% | mortality [17]: 0% | mortality [18]: 0% | mortality [19]: 0% | mortality [20]: 3.3% | mortality [21]: 0% | mortality [22]: 0% | mortality [23]: 23.3% | mortality [24]: 20% | mortality [25]: 0% | mortality [26]: 0% | mortality [27]: 0% | mortality [28]: 0% | mortality [29]: 13.3% | mortality [30]: 0% | mortality [31]: 16.7% | mortality [32]: 13.3%

CC12CCC(CC1=O)C2(C)C (stereo not given) [CAMPHOR]
mortality [1]: 0% | mortality [2]: 6.7% | mortality [3]: 46.7% | mortality [4]: 23.3% | mortality [5]: 13.3% | mortality [6]: 86.7% | mortality [7]: 36.7% | mortality [8]: 0% | mortality [9]: 83.3% | mortality [10]: 86.7% | mortality [11]: 33.3% | mortality [12]: 13.3% | mortality [13]: 86.7% | mortality [14]: 93.3% | mortality [15]: 63.3% | mortality [16]: 43.3% | mortality [17]: 53.3% | mortality [18]: 0% | mortality [19]: 30% | mortality [20]: 6.7% | mortality [21]: 0% | mortality [22]: 0% | mortality [23]: 56.7% | mortality [24]: 70% | mortality [25]: 6.7% | mortality [26]: 0% | mortality [27]: 36.7% | mortality [28]: 30% | mortality [29]: 76.7% | mortality [30]: 26.7% | mortality [31]: 86.7% | mortality [32]: 36.7%

CC12CCC(C1)C(C)(C)C2O (stereo not given) [FENCHYL ALCOHOL]
mortality [1]: 3.3% | mortality [2]: 30% | mortality [3]: 10% | mortality [4]: 13.3% | mortality [5]: 3.3% | mortality [6]: 3.3% | mortality [7]: 3.3% | mortality [8]: 10% | mortality [9]: 3.3% | mortality [10]: 3.3% | mortality [11]: 20% | mortality [12]: 0% | mortality [13]: 3.3% | mortality [14]: 20% | mortality [15]: 13.3% | mortality [16]: 6.7% | mortality [17]: 3.3% | mortality [18]: 3.3% | mortality [19]: 3.3% | mortality [20]: 0% | mortality [21]: 23.3% | mortality [22]: 16.7% | mortality [23]: 43.3% | mortality [24]: 13.3% | mortality [25]: 30% | mortality [26]: 10% | mortality [27]: 23.3% | mortality [28]: 10% | mortality [29]: 13.3% | mortality [30]: 6.7% | mortality [31]: 3.3% | mortality [32]: 16.7%
